# Data as given in US6248309A, “Gums containing antimicrobial agents” (priority 1999, dated 2001).
# Several values for one entry are separate records, joined by “and”; a condition that tells them apart may be missing. Equal values may be shown once. Where a name gives a salt, the structure may show the parent alone. Read-outs that look alike come from different tables or passages of the source.
# Tests used:
# [1] = system: Actinomyces viscosus (AV); assay: MIC of agents alone and in two-agent combination (Example 1); format: cell-based, Actinomyces viscosus ATCC 19246; conditions: concentration of TB1 (agent A)
# Protocol: (§1) The following example illustrates how the MIC of individual antimicrobial agents that are combined were determined and also illustrates how the MIC of the antimicrobial agents in combination were determined.
# (§2) A microtiter plate was used to dilute the antimicrobial agents to varying concentrations in order to determine the MIC of those antimicrobial agents alone and the MIC of the agents when combined.
# (§3) A bacterial culture was incubated at 37° C. Prior to the dilution of the antimicrobial agents as described below, the bacterial culture was spun down at 2,000 rpm into a pellet and resuspended in a solution of buffered phosphate. The innoculum was normalized with a spectrophotometer to an optical density at 550 nanometers of between 0.180-0.220 (equivalent to 5.0×10^7 colony forming units, CFU per milliliter). The innoculum was set aside until the completion of the antimicrobial agent dilution. […]
# (§4) Following 48 hours of incubation, the incubated plate was read for microbial growth with a spectrophotometer by optical density (OD). The well containing the lowest dilution achievable for each agent with a spectrophotometer reading below 0.05 OD (i.e., no detectable microbial growth) was considered representative for the combination. The MIC for each agent in the combination was determined by accounting for the starting stock solution concentration and the resulting dilutions in the 96-well plate. […]
# [2] = system: Fusobacterium nucleatum (FN); assay: as above; format: cell-based, Fusobacterium nucleatum ATCC 10933; conditions: concentration of TB1 (agent A)
# Protocol: as §1, §2, §3, §4
# [3] = system: Streptococcus mutans (SM); assay: as above; format: cell-based, Streptococcus mutans ATCC 25175; conditions: concentration of TB1 (agent A)
# Protocol: as §1, §2, §3, §4
# [4] = system: Porphyromonas gingivalis (PG); assay: as above; format: cell-based, Porphyromonas gingivalis ATCC 33277; conditions: concentration of TB1 (agent A)
# Protocol: as §1, §2, §3, §4
# [5] = system: Streptococcus sanguis (SS); assay: as above; format: cell-based, Streptococcus sanguis ATCC 49295; conditions: concentration of TB1 (agent A)
# Protocol: as §1, §2, §3, §4
# [6] = system: Streptococcus sanguis (SS); assay: MIC of agents alone, in pairs and in three-agent combination (Example 2); format: cell-based, Streptococcus sanguis ATCC 49295; conditions: agent used alone
# Description: (§5) In addition, the example describes how the MIC of antimicrobial agents in the combinations are reduced compared to the MIC of those antimicrobial agents alone and the MIC of those agents in various pairings. Numerous combinations of the antimicrobial agents described herein were combined to form combinations comprising three antimicrobial agents or triplets. Each of the formed triplets included either cedarwood oil or berberine hydrochloride.
# (§6) The protocol used was a variation of the procedure described above in Example 1. The assay was carried out in the two-dimensional array of a 96-well plate. In order to evaluate three agents, two of the agents were paired against the third agent. For example, varying concentrations of antimicrobial agent A plus antimicrobial agent B versus varying concentrations of antimicrobial agent C were evaluated on one 96-well plate. The procedure was repeated with the other two possible pairings, i.e., A+C with B, and B+C with A. Accordingly, each triplet required three assays in order to assess each of the three possible pairings.
# (§7) The bacterial innoculum was prepared as described in Example 1.
# A sterile polystyrene 96-well plate was used to dilute the antimicrobial agents A, B and C. Using aseptic technique, 100 microliters of distilled water was placed in each test well. The dilution scheme was separated into two parts. First, the dilution of the combined agents A and B and then second, the dilution of agent C. A dilution of agents A and B was accomplished by placing 50 microliters of stock solution for agent A in the first well of each column. Next, 50 microliters of stock solution for agent B was added to each of the first wells of each column. […]
# (§8) The 96-well plate was then incubated under conditions that varied by microorganism. […] The plate was then read for microbial growth with a spectrophotometer by optical density. […]
# [7] = system: Fusobacterium nucleatum (FN); assay: as above; format: cell-based, Fusobacterium nucleatum ATCC 10933
# Description: as §5, §6, §7
# (§9) A sterile polystyrene 96-well plate was used to dilute the antimicrobial agents A, B and C. Using aseptic technique, 100 microliters of distilled water was placed in each test well. The dilution scheme was separated into two parts. First, the dilution of the combined agents A and B and then second, the dilution of agent C. A dilution of agents A and B was accomplished by placing 50 microliters of stock solution for agent A in the first well of each column. Next, 50 microliters of stock solution for agent B was added to each of the first wells of each column. Accordingly, the first well of each column included 50 microliters of stock solution for agent A and 50 microliters of stock solution for agent B. 100 microliters from the first row in each column was then transferred to the next well in the column and so on down the column. Each transfer was a one-half dilution of the preceding concentration.
# (§10) The dilution of antimicrobial agent C was accomplished by adding 100 microliters of agent C stock solution to the first well of each row. 100 microliters from the first well in each row was then transferred to the next well and so on across the row of test wells. Each transfer was a one-half dilution of the preceding concentration. FIG. 1 is a schematic illustration of the concentrations of antimicrobial agents A, B and C derived from the dilution scheme described above. […] The concentration of agent C decreases across a row from left to right. […]
# as §8
# [8] = system: Campylobacter rectus (CR); assay: as above; format: cell-based; conditions: read-out: MIC, individual agent alone
# Description: as §5, §6, §7
# A sterile polystyrene 96-well plate was used to dilute the antimicrobial agents A, B and C. […]
# as §8
# [9] = system: Streptococcus mutans (SM); assay: as above; format: cell-based, Streptococcus mutans ATCC 25175; conditions: agent used alone
# Description: as §5, §6, §7, §9, §10, §8
# [10] = system: Porphyromonas gingivalis (PG); assay: as above; format: cell-based, Porphyromonas gingivalis ATCC 33277
# Description: as §5, §6, §7, §9, §10, §8
# [11] = system: Actinomyces viscosus (AV); assay: as above; format: cell-based, Actinomyces viscosus ATCC 19246; conditions: agent used alone
# Description: as §5, §6, §7, §9, §10, §8
# [12] = for Above MIC in Saliva (Y/N): concentration in saliva at any time above MIC relative to Porphyromonas gingivalis
# Protocol: (§11) Ten volunteers chewed 2.7 grams samples of each gum formulation and provided saliva samples at intervals and the gum bolus at the end of the 25 minute chewing period. High pressure liquid chromatography and gas chromatography were used to analyze the gum bolus and saliva non-volatile and volatile components, respectively.
# (§12) Saliva samples were collected from each of the individuals prior to chewing 2.7 grams of gum, and at 1.0, 2.5, 5.0, 10.0, and 25.0 minutes while chewing the gum. The saliva samples were refrigerated until analysis. The gum bolus that remained after 25 minutes was saved and extracted immediately or stored refrigerated until extraction for analysis.
# (§13) Samples were Vortex-mixed in Multi-tube vortex mixer for one minute and then centrifuged at top speed in clinical centrifuge for two minutes. Supernatants were carefully transferred to 1 milliliter glass shell vials and capped. Analysis was carried out either by isocratic elution for glabridin-only samples, or gradient elution for the samples containing the glycyrrhizic and 18β-glycyrrhetinic acids using high pressure liquid chromatography. Glabridin concentrations were converted to GLY concentrations by taking the weight percent glabridin in GLY to be 2.74 percent.
# (§14) The calibration curve was prepared using spiked blank saliva.
# (§15) For saliva, the essential oils of menthol, cedarwood oil, geraniol and Rosmarinus officianalis were determined by capillary gas chromatography. The split ratio was 25:1. The injection volume was 2 μL. Four hundred μL of saliva was extracted from the 1 milliliter of ethyl acetate containing an internal standard (hexadecane) in 1.5 milliliter Eppendorf tubes. After centrifugation, the organic layer was injected directly into the Hewlett-Packard 6890 gas chromatograph. […] For this reason, only the samples from 0 to 10 minutes were analyzed. A cleanup gradient was run from 190 to 300° C. every fifth sample to remove less volatile interferences from the column.
# [13] = format: in vivo, human volunteers
# Protocol: The saliva samples were refrigerated until analysis.
# To either 2.7 grams unchewed gum sample or the remaining bolus of chewed gum, was added 3.0 millileters of internal standard (Hesperetin) in methanol, 6.0 milliliters hexane and 3.0 milliliters distilled water. Samples were homogenized using a Polytron Homogenizer model PT10/35 from Brinkmann Instruments, fitted with a PTA10TS generator for at least 30 seconds on ice, or until no lumps of non-dispersed gum were visible in the sample. Samples were then centrifuged in a Dynac Tabletop Centrifuge at top speed for ten minutes. The lower, amber, aqueous/methanol layer were then filtered through 25 millimeter, 0.45 micrometer nylon Acrodisc syringe filters from Gelman into 4 milliliter autosampler vials and tightly capped with polytetrafluorothylene lined septum in open-top screw caps. These samples were then analyzed using high pressure liquid chromatography for glabridin and/or glycyrrhizic and 18β-glycyrrhetinic acid, and were quantitated against a 4-point linear curve prepared by spiking approximately 2.7 grams unchewed samples of Wrigley Extra Sugarfree Peppermint gum with known levels of purified glabridin, glycyrrhizic acid monoammonium salt and 18β-glycyrrhetinicacid.
# For the analysis of the gum bolus, both chewed and unchewed, a Polytron Homogenizer, described above was used. The gum sample was placed in a heavy wall glass tube. Internal standard ([…]) ethyl acetate ([…]) and water ([…]) were added. The sample was homogenized for approximately 30 seconds, or until no particles could be seen. The tubes were then centrifuged for 10 minutes on a clinical centrifuge at maximum speed. The supernatant was injected directly onto the gas chromatograph. The oven program was modified to allow resolution of ROF1 components from those of the peppermint flavoring. The gas chromatograph was calibrated using a three point standard curve to quantify the following components: menthol (flavor); geraniol (oil geraniol); cedrene, thujopsene (RC1); pinene, cineol, camphor, bornyl acetate (ROF1). The initial temperature was decreased from 140° C. to 100° C. The temperature gradient was changed from 10° C./minute to 4° C./minute. The split ratio was 50:1, and injection volume was 1 μL as per the method. A cleanup gradient was run every fifth sample as described previously.
# A recovery study was performed in triplicate using blank Wrigley's Peppermint Gum (chewed and unchewed) spiked with stand and solution. Recovery was calculated relative to a direct standard consisting of spike solution without sample matrix.
# clinical = conditions: human, in vivo
# Protocol: as §11, §12, §13, §14, §15
# Porphyromonas gingivalis = assay: MIC of each agent used in Example 5; format: cell-based; conditions: read-out: MIC relative to Porphyromonas gingivalis used in Example 5
# Protocol: The MIC Range was determined against a standard panel of five organisms that included Actinomyces viscosus, Fusobacterium nucleatum, Porphyromonas gingivalis, Streptococcus mutans, and Stretococcus sanguis. The starting dilution was 0.1 percent in methanol. The MIC used in this Example 5 was the MIC for each agent relative to Porphyromonas gingivalis.
molecule,measurement,setting,value
N-cocamidopropyl-dimethylglycine [TB1],MIC of Cocamidopropyl Dimethylglycine alone and when combined with Agent B,[1],28.9 µg/mL
same,MIC of Cocamidopropyl Dimethylglycine alone and when combined with Agent B,[2],45.4 µg/mL
same,MIC of Cocamidopropyl Dimethylglycine alone and when combined with Agent B,[3],22.8 µg/mL
same,MIC of Cocamidopropyl Dimethylglycine alone and when combined with Agent B,[4],16.8 µg/mL
same,MIC of Cocamidopropyl Dimethylglycine alone and when combined with Agent B,[5],30.2 µg/mL
"COc1ccc2cc3[n+](cc2c1OC)CCc1cc2c(cc1-3)OCO2 [BX1, 5,6-dihydro-9,10-dimethoxybenzo[g]-1,3-benzodioxolo [5,6-a] quinolizinium]","MIC, individual agent alone",[6]; SS,62.5 µg/mL
same,MIC,"[6]; Streptococcus, read-out: MIC, individual agent alone, SS",31.3 µg/mL
same,"MIC, individual agent alone","[7]; FN, agent used alone",62.5 µg/mL
same,MIC,"[7]; Fusobacterium nucleatum, read-out: MIC, individual agent alone",62.5 µg/mL
same,MIC,[8],125 µg/mL
same,"MIC, individual agent alone",[9]; SM,31.3 µg/mL and 62.5 µg/mL
same,MIC,"[9]; Streptococcus mutans, read-out: MIC, individual agent alone, SM",31.3 µg/mL
same,"MIC, individual agent alone","[10]; PG, agent used alone",15.6 µg/mL
same,MIC,"[10]; Porphyromonas gingivalis, read-out: MIC, individual agent alone",15.6 µg/mL
same,"MIC, individual agent alone",[11]; AV,62.5 µg/mL
same,MIC,"[11]; Actinomyces viscosus, read-out: MIC, individual agent alone, AV",31.3 µg/mL
CC1CCC(C(C)C)C(O)C1 (stereo not shown) [Menthol],Concentration of Antimicrobial Agent in Saliva,"[12]; 25 minutes, GLY formulations 1,3-6, RC1 5,6, GRA 4-6, GA, GR #6, menthol 1-6",below detection limits
same,Above MIC in Saliva (Y/N),[12],No
same,Release from Chewed Gum Bolus after 25 min,"[13]; 2.7 g peppermint gum chewed 25 min, ten volunteers",50%
same,concentration at 1 min,clinical,25 µg/mL
same,concentration at 2.5 min,clinical,22 µg/mL
same,concentration at 5 min,clinical,24 µg/mL
same,concentration at 10 min,clinical,24 µg/mL
same,MIC,Porphyromonas gingivalis,125 µg/mL
"CC1(C)[C@@H](O[C@H]2O[C@H](C(=O)O)[C@@H](O)[C@H](O)[C@H]2O[C@@H]2O[C@H](C(=O)O)[C@@H](O)[C@H](O)[C@H]2O)CC[C@]2(C)[C@H]3C(=O)C=C4[C@@H]5C[C@@](C)(C(=O)O)CC[C@]5(C)CC[C@@]4(C)[C@]3(C)CC[C@@H]12 [GR, Glycyrrhizic Acid, Monoammonium salt]",Above MIC in Saliva (Y/N),[12],Yes
same,Rate of release from gum,"[12]; human, in vivo",released from a gum base less quickly and over a longer period of time
same,Maintenance of concentration in oral cavity above MIC,"[12]; in words, released from a gum composition",maintain a concentration in the oral cavity at a level above the MIC
same,Release from Chewed Gum Bolus after 25 min,[13]; in vivo,85%
same,concentration at 1 min,clinical,3100 µg/mL
same,concentration at 2.5 min,clinical,111 µg/mL
same,concentration at 5 min,clinical,55 µg/mL
same,concentration at 10 min,clinical,30 µg/mL
same,concentration at 25 min,clinical,10 µg/mL
"CC1(C)[C@@H](O)CC[C@]2(C)[C@H]3C(=O)C=C4[C@@H]5C[C@@](C)(C(=O)O)CC[C@]5(C)CC[C@@]4(C)[C@]3(C)CC[C@@H]12 [GA, 18β-Glycyrrhetinic acid]",Above MIC in Saliva (Y/N),[12],No
same,Release from Chewed Gum Bolus after 25 min,[13]; in vivo,15%
same,concentration at 1 min,clinical,1.8 µg/mL
same,concentration at 2.5 min,clinical,1.5 µg/mL
same,concentration at 5 min,clinical,1.6 µg/mL
same,concentration at 10 min,clinical,1.8 µg/mL
same,concentration at 25 min,clinical,2.3 µg/mL
